Measurements taken from patent US20250090695A1, “IMMUNOSTIMULANT-CYTOTOXIC CONJUGATE COMPOSITION AND METHODS FOR CANCER TREATMENT” (The Research Foundation for the State University of New York, priority 2022, published 2025).

Key:
[1] = Biodistribution in a syngeneic model of prostate cancer with a RM1-PGLS tumor; details: 72 h, C57BL/6J mice
[2] = OLINDA dosimetry to adult male from mouse biodistribution
[3] = system: CD8+ and CD4+ T-cell populations; assay: T-cell population analysis in spleen and tumor of RM1-PGLS bearing mice; format: in vivo; design: unit not given here; details: RM1-PGLS bearing C57BL/6J mice
Protocol: FIG. 12A-12B show graphical representations of T-cell population analysis measuring cell viability in the spleen (FIG. 12A). and in the tumor (FIG. 12B) in vivo for subjects having RM1-PGLS tumors with either an experimental ^177Lu-RIMS compound, or a control compound selected from: ^177Lu-PSMA-617, unlabeled Lu-RIMS, or a control vehicle.
^177Lu-RIMS-1 and control compounds were evaluated for immune cell recruitment.

RM1-PGLS tumors = format: in vivo, murine subjects; details: overall survival post treatment; RM1-PGLS tumors; P < 0.0007 printed for 177Lu-RIMS-1
Protocol: FIG. 11A-11C show a visual schematic of RM1-PGLS tumor insertion in mice followed by T-cell population analysis (FIG. 11A), and tumor efficacy study analysis for in vivo tumor treatment with experimental ^177Lu-RIMS-1 compound compared with control compounds: ^177Lu-PSMA-617, unlabeled Lu-RIMS, and saline (FIG. 11B) measuring tumor volume (left), and percent survival (right).
Murine subjects were treated with RIMS compounds and tumor volume (FIG. 11B, left), subject viability measured as percent survival (FIG. 11B, right), subject weight (FIG. 11C), were described and analyzed as shown in FIGS. 11A-11C. Median overall survivability (OS) in murine subjects treated with RIMS compounds and control therapies.

T-cells (CD3) = assay: Immuno-PET ROI analysis of 89Zr-DFO-anti-CD3 after therapy (tumor infiltrating T-cells); format: in vivo, murine subjects
Protocol: FIG. 13A-13C describes a method and results for T-cell detection using immuno-positron emission tomography (PET).
FIG. 14A-14D show graphical representations of tumor infiltrating T-cell analysis after administration of a therapeutic compound or control. Infiltration was measured using immuno-positron emission tomography (PET).

In the case of `O=C([O-])CN1CCN(CC(=O)[O-])CCN(CC(=O)NCC2CCC(C(=O)N[C@@H](Cc3ccc4ccccc4c3)C(=O)NCCCC[C@H](NC(=O)N[C@@H](CCC(=O)O)C(=O)O)C(=O)O)CC2)CCN(CC(=O)[O-])CC1.[177Lu+3]` (stereo partly shown) [^177Lu-PSMA-617], the “Biodistribution Heart (% ID/g ± SD)” value [1] is reported as 0.01 ± 0.00 % ID/g, the “Biodistribution Kidney (% ID/g ± SD)” value [1] is reported as 0.04 ± 0.01 % ID/g and the “Biodistribution Liver (% ID/g ± SD)” value [1] is reported as 0.02 ± 0.01 % ID/g. The “Biodistribution Muscle (% ID/g ± SD)” value [1] was 0.01 ± 0.00 % ID/g, the “Biodistribution RM1-PGLS tumor (% ID/g ± SD)” value [1] was 0.18 ± 0.06 % ID/g and the “Biodistribution Sm Int (% ID/g ± SD)” value [1] was 0.02 ± 0.01 % ID/g. For the same molecule, the “Biodistribution Spleen (% ID/g ± SD)” value [1] was 0.02 ± 0.01 % ID/g, the “OLINDA dosimetry to Adult Male, Adrenals” value ([2]; Target Organ Adrenals) was 1.32 μSv/MBq and the “OLINDA dosimetry to Adult Male, Brain” value ([2]; Target Organ Brain) was 0.00 μSv/MBq. For the same molecule, the “OLINDA dosimetry to Adult Male, Esophagus” value ([2]; Target Organ Esophagus) was 0.25 μSv/MBq, the “OLINDA dosimetry to Adult Male, Eyes” value ([2]; Target Organ Eyes) was 0.00 μSv/MBq and the “OLINDA dosimetry to Adult Male, Gallbladder Wall” value ([2]; Target Organ Gallbladder Wall) was 0.93 μSv/MBq. The “OLINDA dosimetry to Adult Male, Heart Wall” value ([2]; Target Organ Heart Wall) was 1.57 μSv/MBq, the “OLINDA dosimetry to Adult Male, Kidneys” value ([2]; Target Organ Kidneys) was 54.70 μSv/MBq and the “OLINDA dosimetry to Adult Male, Left Colon” value ([2]; Target Organ Left Colon) was 0.18 μSv/MBq. The “OLINDA dosimetry to Adult Male, Liver” value ([2]; Target Organ Liver) was 27.80 μSv/MBq, the “OLINDA dosimetry to Adult Male, Lungs” value ([2]; Target Organ Lungs) was 2.43 μSv/MBq and the “OLINDA dosimetry to Adult Male, Osteogenic Cells” value ([2]; Target Organ Osteogenic Cells) was 0.83 μSv/MBq. For the same molecule, the “OLINDA dosimetry to Adult Male, Pancreas” value ([2]; Target Organ Pancreas) was 0.32 μSv/MBq, the “OLINDA dosimetry to Adult Male, Prostate” value ([2]; Target Organ Prostate) was 0.10 μSv/MBq and the “OLINDA dosimetry to Adult Male, Rectum” value ([2]; Target Organ Rectum) was 0.07 μSv/MBq. The “OLINDA dosimetry to Adult Male, Red Marrow” value ([2]; Target Organ Red Marrow) was 0.10 μSv/MBq, the “OLINDA dosimetry to Adult Male, Right Colon” value ([2]; Target Organ Right Colon) was 0.27 μSv/MBq and the “OLINDA dosimetry to Adult Male, Salivary Glands” value ([2]; Target Organ Salivary Glands) was 0.01 μSv/MBq. For the same molecule, the “OLINDA dosimetry to Adult Male, Small Intestine” value ([2]; Target Organ Small Intestine) was 1.54 μSv/MBq, the “OLINDA dosimetry to Adult Male, Spleen” value ([2]; Target Organ Spleen) was 0.25 μSv/MBq and the “OLINDA dosimetry to Adult Male, Stomach Wall” value ([2]; Target Organ Stomach Wall) was 0.23 μSv/MBq. The “OLINDA dosimetry to Adult Male, Thymus” value ([2]; Target Organ Thymus) was 0.11 μSv/MBq, the “OLINDA dosimetry to Adult Male, Thyroid” value ([2]; Target Organ Thyroid) was 0.05 μSv/MBq and the “OLINDA dosimetry to Adult Male, Today Body” value ([2]; Target Organ Total Body) was 1.13 μSv/MBq. For the same molecule, the “OLINDA dosimetry to Adult Male, Tumor” value ([2]; Target Organ Tumor) was 145.00 μSv/MBq, the “OLINDA dosimetry to Adult Male, Urinary Bladder Wall” value ([2]; Target Organ Urinary Bladder Wall) was 7.66 μSv/MBq and the “Total CD4+ T-cell population” value ([3]; Spleen) was 12.73 ± 2.17. For the same molecule, the “Total CD8+ T-cell population” value ([3]; Spleen) was 8.78 ± 1.61, the “Total CD4+ T-cell population” value ([3]; Tumor) was 1.47 ± 0.59 and the “Total CD8+ T-cell population” value ([3]; Tumor) was 4.76 ± 1.40. For the same molecule, the “Median OS” value (RM1-PGLS tumors) was 15 days, the “% Injected Dose/cc of 89Zr-DFO-anti-CD3 (ROI)” value (shortened to “% Injected Dose/cc”) (T-cells (CD3); Blood, 8 days after administration of therapy) was 8.94 ± 0.34 % Injected Dose/cc and the “% Injected Dose/cc” value (T-cells (CD3); Blood, 9 days after administration of therapy) was 5.85 ± 2.22 % Injected Dose/cc. The “% Injected Dose/cc” value (T-cells (CD3); Blood, 10 days after administration of therapy) was 4.13 ± 0.68 % Injected Dose/cc, the “% Injected Dose/cc” value (T-cells (CD3); Blood, 11 days after administration of therapy) was 4.05 ± 1.24 % Injected Dose/cc and the “% Injected Dose/cc” value (T-cells (CD3); Blood, 12 days after administration of therapy) was 4.26 ± 0.62 % Injected Dose/cc. For the same molecule, the “% Injected Dose/cc” value (T-cells (CD3); Spleen, 8 days after administration of therapy) was 21.55 ± 4.49 % Injected Dose/cc, the “% Injected Dose/cc” value (T-cells (CD3); Spleen, 9 days after administration of therapy) was 24.84 ± 4.91 % Injected Dose/cc and the “% Injected Dose/cc” value (T-cells (CD3); Spleen, 10 days after administration of therapy) was 27.09 ± 3.75 % Injected Dose/cc. The “% Injected Dose/cc” value (T-cells (CD3); Spleen, 11 days after administration of therapy) was 23.82 ± 3.55 % Injected Dose/cc, the “% Injected Dose/cc” value (T-cells (CD3); Spleen, 12 days after administration of therapy) was 24.65 ± 0.81 % Injected Dose/cc and the “% Injected Dose/cc” value (T-cells (CD3); Tumor, 8 days after administration of therapy) was 10.27 ± 0.024 % Injected Dose/cc. For the same molecule, the “% Injected Dose/cc” value (T-cells (CD3); Tumor, 9 days after administration of therapy) was 7.83 ± 1.66 % Injected Dose/cc, the “% Injected Dose/cc” value (T-cells (CD3); Tumor, 10 days after administration of therapy) was 6.67 ± 3.63 % Injected Dose/cc and the “% Injected Dose/cc” value (T-cells (CD3); Tumor, 11 days after administration of therapy) was 3.90 ± 0.35 % Injected Dose/cc. For the same molecule, the “% Injected Dose/cc” value (T-cells (CD3); Tumor, 12 days after administration of therapy) was 2.72 ± 0.81 % Injected Dose/cc.
